Calls of active or inactive are those of the source. The rule behind the calls is not given here.
Target: Toxin B (TcdB) glycohydrolase, Clostridioides difficile 630
Assay: TcdB glycohydrolase inhibitors, dose response, biochemical, cherry-pick, plate reader (AID 720512)
Conditions: recombinant TcdB glycohydrolase activity; for activity change, negative = inhibition: at 19.5 µM (top of the series)

Row | Structure (SMILES) | activity change, negative = inhibition | AC50
1 | COc1nc(C)cc(C)c1S(=O)(=O)c1ccc(Cl)cc1 | inactive | –
2 | Cc1c(O)ccc(NC(=O)/C=C/c2ccccc2)c1C | inactive | –
3 | O=C(NCc1cc(C(F)(F)F)cc(C(F)(F)F)c1)C1CC(c2c(Cl)cccc2Cl)=NO1 (stereo unspecified) | inactive | –
4 | Oc1ccc(-c2nc3cnccn3c2Nc2ccc3c(c2)OCCO3)cc1 | inactive | –
5 | COc1cc(/C=C/C(=O)OCC(=O)c2ccc[nH]2)ccc1O | inactive | –
6 | Cc1ccc(Oc2c(CO)c(-c3ccccc3)nn2C)cc1 | inactive | –
7 | O=S(=O)(c1ccccc1)N1CCN(Cc2nnc(-c3ccccc3)o2)CC1 | inactive | –
8 | O=C(c1ccccc1F)N1CCN(c2ccc([N+](=O)[O-])c3cccnc23)CC1 | inactive | –
9 | COc1ccccc1-n1c(SCC(=O)O)nc2c(sc(=S)n2-c2ccc(C)c(C)c2)c1=O | inactive | –
10 | CCCCn1c(-c2ccccc2C)nc2cc3[nH]c(=O)c(C(C)C)nc3cc21 | inactive | –
11 | O=C(OCC(=O)N1CCCCC1)c1ccccc1SCC(=O)N1CCCCC1 | inactive | –
12 | O=c1[nH]c(/C=C\c2ccc(O)c(Cl)c2)nc(O)c1[N+](=O)[O-] | – | > 39 µM (inactive)
13 | Cc1ccc(-c2cc(C(=O)NNC(=O)c3csc(N4CCOCC4)n3)c3ccccc3n2)cc1 | inactive | –
14 | O=C(N/N=C/c1ccc(O)c(O)c1)C1CC1 | inactive | –
15 | CCc1ccc2oc(-c3cc(N)ccc3Cl)nc2c1 | inactive | –
16 | O=C(CSc1cccc2cccnc12)N/N=C/c1ccc(O)cc1 | inactive | –
17 | Oc1ccc(/C=N/n2cc(-c3ccccc3)[nH]c2=S)cc1 | inactive | –
18 | Cc1cc(SCC(=O)N/N=C/c2ccco2)nc2ccccc12 | inactive | –
19 | CCOC(=O)c1sc2nc(OCCN3CCOCC3)cc(C)c2c1N | inactive | –
20 | CNC(=O)C[C@H]1CC[C@@H]2[C@H](COc3ccc(NC(=O)Nc4ccc(C)cc4)cc3C(=O)N2C)O1 | inactive | –
21 | Cc1[nH]nc(-c2ccc(O)cc2O)c1Oc1ccccc1 | inactive | –
22 | O=C(Cc1ccccc1)NNC(=S)NC(=O)c1cccnc1 | inactive | –
23 | Cc1ccc(N/N=C/c2c(O)n(-c3ccccc3)c(=O)[nH]c2=O)cc1 | – | 8.13 µM

Row | Structure (SMILES) | activity change, negative = inhibition | AC50
24 | O=C(NNc1ccc(-c2csnn2)cc1)c1ccccc1C(F)(F)F | inactive | –
25 | Cc1ccc(NC(=O)C2OCCc3ccccc32)cc1C (stereo unspecified) | inactive | –
26 | CC(Sc1nccn1C)C(=O)c1c(N)n(C)c(=O)n(C)c1=O (stereo unspecified) | inactive | –
27 | COc1ccc(-c2ccc3c(c2)[C@H]2[C@H](CCN2C(=O)CN2CCOCC2)[C@@H](CO)N3)cc1 | inactive | –
28 | CN(C(=O)COC(=O)CNC(=O)c1ccccc1Cl)c1ccccc1 | inactive | –
29 | C[N+]1(CCCCSc2ccc(O)cc2)CCCCC1 | – | > 39 µM (inactive)
30 | O=C(O)c1ccc(/C=N/NC(=S)NCCN2CCOCC2)cc1 | inactive | –
31 | O=C(c1cn(-c2ccccc2)nc1-c1ccncc1)n1nnc2ccccc21 | inactive | –
32 | COc1ccc(/C=C/c2onc(C)c2S(=O)(=O)N2CCC(C(=O)N3CCCCCC3)CC2)cc1 | inactive | –
33 | COC(=O)/C=C/C(=O)Nc1ccc(O)c(Cl)c1 | – | 20.9 µM
34 | CN(C)c1ccc(Cl)c(NC(N)=S)c1 | inactive | –
35 | c1ccc(SCc2nc3ccccc3s2)nc1 | inactive | –
36 | COc1ccc(C(=O)Nc2ccccc2C(=O)O)cc1Cl | inactive | –
37 | CC(=O)c1ccc(Nc2ccc(-c3ccccc3F)nn2)cc1 | inactive | –
38 | CN(C)/C=C(\C#N)C(=O)Nc1ccc(O)cc1F | inactive | –
39 | CCCCN(C)c1c(C)nc2ccc(C(=O)NCc3cccs3)cn12 | inactive | –
40 | Cc1ccc(S(=O)(=O)N2CCC(C(=O)OCC(=O)NCCc3ccccc3)CC2)cc1C | inactive | –
41 | COc1ccc(CNC(=O)C2=CC(c3ccc(C)cc3)=NS(=O)(=O)N2C)cc1 | inactive | –
42 | O=C(NC(=S)Nc1ccc(N2CCOCC2)cc1)c1ccccc1 | – | > 39 µM (inactive)
43 | CCCNC(=O)C1CCN(S(=O)(=O)c2c(C)noc2/C=C\c2ccc(OC)cc2)CC1 | inactive | –
44 | COc1cc(Cn2nnc3ccccc32)ccc1O | inactive | –
45 | COc1ccc(C2=NS(=O)(=O)N(C)C(C(=O)NCc3ccc4c(c3)OCO4)=C2)cc1OC | inactive | –
46 | C=C1CCN(Cc2ccccc2)S(=O)(=O)c2ccccc21 | inactive | –

Row | Structure (SMILES) | activity change, negative = inhibition | AC50
47 | FC(F)(F)c1cc(CCN2CCNC[C@H]2Cc2cccc3ccccc23)cc(C(F)(F)F)c1 | – | > 39 µM (inactive)
48 | CSc1ccc(/C=N/N2CCN(Cc3ccc(Cl)cc3)CC2)cc1 | inactive | –
49 | Cc1ccc(C(=O)Nc2ccc(N3CCCCC3)cc2)cc1 | inactive | –
50 | C[C@H](CO)N1C[C@H](C)[C@@H](CN(C)CC2CCCCC2)Oc2ccc(NC(=O)CCN3CCOCC3)cc2C1=O | inactive | –
51 | CNC(=O)N(O)C1N(/N=C/c2cccs2)C(=S)SC1(C)C (stereo unspecified) | inactive | –
52 | CCCNC(=O)N1CC[C@@H]2[C@@H](CO)N(C)c3ccc(-c4ccc(F)cc4)cc3[C@@H]21 | – | > 42 µM (inactive)
53 | Cc1ccccc1S(=O)(=O)N1CCCc2nc(C)c(C)cc21 | inactive | –
54 | Oc1ccc(-c2cn3ccccc3n2)cc1 | – | 12.1 µM
55 | CCOC(=O)c1[nH]nc(-c2cc(CC)c(O)cc2O)c1-c1cscn1 | – | > 39 µM (inactive)
56 | O=C(C[C@H]1C[C@@H]2c3cc(NC(=O)c4ccc5c(c4)OCO5)ccc3O[C@@H]2[C@@H](CO)O1)NCc1cccc(F)c1 | inactive | –
57 | O=C(NCc1cccnc1)c1cc(C2CCCCN2S(=O)(=O)c2cccc3cccnc23)on1 (stereo unspecified) | inactive | –
58 | Cc1ccc(S(=O)(=O)Oc2ccccc2/C=C2\SC(=O)NC2=O)cc1 | inactive | –
59 | O=C(c1ccc(N2CCOCC2)c([N+](=O)[O-])c1)N1CCN(c2ccccc2F)CC1 | inactive | –
60 | O=C(O)COn1c(-c2ccc(Cl)cc2)nc2ccc(Cl)cc21 | – | > 39 µM (inactive)
61 | COc1ccccc1C1NC(=O)NC(C)=C1C(=O)OC1CCCCC1 (stereo unspecified) | inactive | –
62 | O=c1c([N+](=O)[O-])cccn1Cc1ccc(F)cc1Cl | inactive | –
63 | CCOc1cc(/C=N/O)ccc1OCc1ccc(C)cc1 | inactive | –
64 | Cc1cccc(-n2nnc(C(=O)NCc3ccccc3Cl)c2N)c1 | inactive | –
65 | Cc1ccc(S(=O)(=O)N2CCOCC2)cc1C(=O)NCCCN1CCCC1=O | inactive | –
66 | O=C(O)c1cccnc1SCc1ccccc1Cl | inactive | –
67 | O=C(CSc1nc2ccccc2[nH]1)NC1CCCc2ccccc21 (stereo unspecified) | inactive | –
68 | N/C(=N\N=C\c1ccc(O)cc1)c1nonc1N | inactive | –
69 | CN1CCN(/N=C/c2c[nH]c3ccccc23)CC1 | inactive | –

Row | Structure (SMILES) | activity change, negative = inhibition | AC50
70 | COc1ccc(Br)cc1C(=O)Nc1ccc(O)cc1 | inactive | –
71 | O=S(=O)(Nc1ccc(O)cc1)c1cccc2cccnc12 | inactive | –
72 | CNC(=O)C[C@H]1CC[C@@H]2[C@@H](COc3ccc(NC(=O)c4ccc(OC)cc4)cc3C(=O)N2C)O1 | inactive | –
73 | CCCNC(=O)C1CC(=O)N(c2ccc(OCC)cc2)C1 (stereo unspecified) | inactive | –
74 | O=C(C[C@@H]1CC[C@@H]2[C@H](COC[C@@H](O)CN2C(=O)c2ccccn2)O1)NC1CCC1 | inactive | –
75 | COC(=O)C1=C[C@@H](C(=O)OC)[C@@H]2C3=C(C(=O)[C@]2(C)NC(=O)c2ccccc2)[C@H](C)n2c(=O)n(C)c(=O)n2[C@@H]3C1 | inactive | –
76 | CC1C(c2ccc3c(c2)OCO3)c2cc3c(cc2OC1N1CCOCC1)OCO3 (stereo unspecified) | inactive | –
77 | CCOC(=O)C1=C(C)Nc2nnnn2C1c1ccc(OC)c(Br)c1 (stereo unspecified) | inactive | –
78 | CC(=O)C1=CCC(c2ccccc2)N(S(=O)(=O)c2ccc(C)cc2)C1 (stereo unspecified) | inactive | –
79 | O=C(c1ccc2c(c1)N(Cc1ccccc1F)C(=O)c1ccccc1S2)N1CCOCC1 | inactive | –
80 | COc1ccc(C(=O)Nc2ccc3c(c2)C(=O)N(C)[C@@H]2CC[C@H](CC(=O)NCC4CC4)O[C@@H]2CO3)cc1 | inactive | –
81 | Cc1cc(C)c(S(=O)(=O)c2ccc(Cl)cc2C)c(Cl)n1 | inactive | –
82 | CCOC(=O)c1ccc(N=c2sc(C(=O)OC)cc(=O)n2CCCN2CCOCC2)cc1 | inactive | –
83 | COC(=O)c1ccc(C23CC4(C2)[C@H](CN(Cc2ccc(C(F)(F)F)cc2)[C@@H]4c2ccccc2)C3c2ccc(Cl)nc2)cc1 (stereo partly specified) | inactive | –
84 | COc1ccc(C2(CNC(=O)c3ccc(OC)c([N+](=O)[O-])c3)CCCCC2)cc1OC | – | > 39 µM (inactive)
85 | COC(=O)C[C@H]1CC[C@@H]2[C@@H](COc3ccc(NC(=O)c4ccc(OC)cc4)cc3C(=O)N2C)O1 | inactive | –
86 | CCCC(=O)Nc1sc2c(c1C(=O)Nc1ccccn1)CCCC2 | inactive | –
87 | CC(=O)N1CC[C@@H]2[C@@H](CO)N(C)c3ccc(-c4ccccc4)cc3[C@@H]21 | – | > 42 µM (inactive)
88 | CCOC(=O)c1nnn(-c2nonc2N)c1-c1ccc(F)cc1 | inactive | –
89 | COc1ccc(S(=O)(=O)Nc2ccc3oc(C)c(C(=O)O)c3c2)cc1 | inactive | –
90 | O=C(Nc1ccc(O)cc1)/C(=C\c1cccs1)NC(=O)c1ccccc1 | inactive | –
91 | Cc1ccc(CNCCCn2cnc(C(=O)Nc3ccc(C)c(C)c3)n2)o1 | inactive | –

From PubChem BioAssay AID720512 (Broad Institute, 2013)
